Data taken from patent publication US20110305911A1, “ARTICLE HAVING ANTIFOULING PROPERTIES AND INTENDED TO BE USED IN AQUATIC APPLICATIONS, PARTICULARLY MARINE APPLICATIONS” (BLUESTAR SILICONES FRANCE, priority 2008, published 2011).

Test: Solubility of the catalyst
Format: physicochemical
Details: ambient temperature (25° C.)

CC(C)C/C(=C/C(=O)C(C)(C)C)[O][Zn][O]/C(=C\C(=O)C(C)(C)C)CC(C)C [Catalyst (6), zinc bis(2,2,7-trimethyl-3,5-octanedionate)]
solubility: soluble in organic solvents, even in alkanes, and in silicone oils
